The structures appear in SMILES notation. Bounds are passed on as bounds.

In this assay the target is ASK1 (Homo sapiens (Human), UniProt Q99683). Description: ASK1 Kinase Assay (Promega ASK1 Kinase Enzyme System, ADP-Glo). Particulars: enzyme 50 nM, ATP 10 μM. The class given is biochemical. The method, then: The ASK1 enzymatic assay was run following Promega ASK1 Kinase Enzyme System (Cat #V3881). The kit provides the protocol, enzymes and all reagents necessary to run an assay. Firstly, the compounds, enzyme, substrate and ATP were diluted in provided assay buffer. The final concentration of the enzyme was 50 nM, substrate (Myelin basic protein) 1 μg/ml and ATP 10 μM. The compound and the enzyme were pre-incubated in a 384 well white solid bottom plate (Greiner, Cat#784075) for 10 minutes. After incubation, the substrate and ATP were added and incubated for further 60 minutes. After 60 minutes, ADP-Glo™ was added and plate was incubated for another 40 minutes. After 40 minutes, Kinase Detection Reagent was added and the plate was incubated for 45 minutes. After 45 minutes, plate was read on Perkin Elmer EnVision using luminescence read (0.5 seconds/well).
Chain of ASK1 (Q99683 649-946 limits assumed): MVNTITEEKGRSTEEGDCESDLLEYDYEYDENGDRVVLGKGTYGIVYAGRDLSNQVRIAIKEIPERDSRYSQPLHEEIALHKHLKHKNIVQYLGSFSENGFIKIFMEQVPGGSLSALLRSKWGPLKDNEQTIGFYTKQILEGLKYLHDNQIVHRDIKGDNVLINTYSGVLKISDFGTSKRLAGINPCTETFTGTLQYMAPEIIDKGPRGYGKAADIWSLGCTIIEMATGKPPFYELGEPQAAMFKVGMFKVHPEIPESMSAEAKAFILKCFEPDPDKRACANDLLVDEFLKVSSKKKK
For orientation: ADP-Glo first removes unused ATP, then detects ADP through luciferase.
With `CNC(=O)c1ccc2c(c1)CN(c1cccc(-c3nncn3C3CC3)n1)C2=O` [Compound 3, 2-(6-(4-cyclopropyl-4H-1,2,4-triazol-3-yl)pyridin-2-yl)-N-methyl-1-oxoisoindoline-5-carboxamide], the concentration for half-maximal inhibition (IC50) is under 200 nM.
The molecule `COCCNC(=O)c1ccc2c(c1)CN(c1cccc(-c3nncn3C3CC3)n1)C2=O` [Compound 4, 2-(6-(4-cyclopropyl-4H-1,2,4-triazol-3-yl)pyridin-2-yl)-N-(2-methoxyethyl)-1-oxoisoindoline-5-carboxamide] gave an IC50 of under 200 nM.
Turning to `O=C(NCCn1ccnc1)c1ccc2c(c1)CN(c1cccc(-c3nncn3C3CC3)n1)C2=O` [Compound 5, N-(2-(1H-imidazol-1-yl)ethyl)-2-(6-(4-cyclopropyl-4H-1,2,4-triazol-3-yl)pyridin-2-yl)-1-oxoisoindoline-5-carboxamide], the concentration for half-maximal inhibition (IC50) is under 200 nM.
In turn, `O=C1c2ccc(C(=O)n3cccn3)cc2CN1c1cccc(-c2nncn2C2CC2)n1` [Compound 6, 2-(6-(4-cyclopropyl-4H-1,2,4-triazol-3-yl)pyridin-2-yl)-5-(1H-pyrazole-1-carbonyl)isoindolin-1-one] displayed a 50% inhibitory concentration (IC50) of under 200 nM.
In turn, `O=C(NC1CCOCC1)c1ccc2c(c1)CN(c1cccc(-c3nncn3C3CC3)n1)C2=O` [Compound 9, 2-(6-(4-cyclopropyl-4H-1,2,4-triazol-3-yl)pyridin-2-yl)-1-oxo-N-(tetrahydro-2H-pyran-4-yl)isoindoline-5-carboxamide] gave an IC50 of under 200 nM.
For `O=C(c1ccc2c(c1)CN(c1cccc(-c3nncn3C3CC3)n1)C2=O)N1CCCC1` [Compound 18, 2-(6-(4-cyclopropyl-4H-1,2,4-triazol-3-yl)pyridin-2-yl)-5-(pyrrolidine-1-carbonyl)isoindolin-1-one], the IC50 is under 200 nM.
The molecule `O=C(c1ccc2c(c1)CN(c1cccc(-c3nncn3C3CC3)n1)C2=O)N1CCC1` [Compound 19, 5-(azetidine-1-carbonyl)-2-(6-(4-cyclopropyl-4H-1,2,4-triazol-3-yl)pyridin-2-yl)isoindolin-1-one] showed an IC50 of under 200 nM.
Regarding `O=C1CN(C(=O)c2ccc3c(c2)CN(c2cccc(-c4nncn4C4CC4)n2)C3=O)CCN1` [Compound 20, 2-(6-(4-cyclopropyl-4H-1,2,4-triazol-3-yl)pyridin-2-yl)-5-(3-oxopiperazine-1-carbonyl)isoindolin-1-one], the IC50 was under 200 nM.
In the case of `O=C(c1ccc2c(c1)CN(c1cccc(-c3nncn3C3CC3)n1)C2=O)N1C[C@H]2CC[C@@H](C1)O2` [Compound 21, 5-((1R,5S)-8-oxa-3-azabicyclo[3.2.1]octane-3-carbonyl)-2-(6-(4-cyclopropyl-4H-1,2,4-triazol-3-yl)pyridin-2-yl)isoindolin-1-one], the IC50 is under 200 nM.
As for `CO[C@@H]1CCN(C(=O)c2ccc3c(c2)CN(c2cccc(-c4nncn4C4CC4)n2)C3=O)C1` [Compound 22, (R)-2-(6-(4-cyclopropyl-4H-1,2,4-triazol-3-yl)pyridin-2-yl)-5-(3-methoxypyrrolidine-1-carbonyl)isoindolin-1-one], the figure is under 200 nM.
The molecule `COC(=O)C1CCN(C(=O)c2ccc3c(c2)CN(c2cccc(-c4nncn4C4CC4)n2)C3=O)CC1` [Compound 23, methyl 1-(2-(6-(4-cyclopropyl-4H-1,2,4-triazol-3-yl)pyridin-2-yl)-1-oxoisoindoline-5-carbonyl)piperidine-4-carboxylate] gave an IC50 of under 200 nM.
As for `O=C(c1ccc2c(c1)CN(c1cccc(-c3nncn3C3CC3)n1)C2=O)N1CCSCC1` [Compound 24, 2-(6-(4-cyclopropyl-4H-1,2,4-triazole-3-yl)pyridin-2-yl)-5-(thiomorpholine-4-carbonyl)isoindolin-1-one], the IC50 is under 200 nM.
Regarding `CSC1CCN(C(=O)c2ccc3c(c2)CN(c2cccc(-c4nncn4C4CC4)n2)C3=O)CC1` [Compound 25, 2-(6-(4-cyclopropyl-4H-1,2,4-triazol-3-yl)pyridin-2-yl)-5-(4-(methylthio)piperidine-1-carbonyl)isoindolin-1-one], the IC50 was under 200 nM.
For `O=C(c1cc2c(cc1Cl)C(=O)N(c1cccc(-c3nncn3C3CC3)n1)C2)N1CCOCC1` [Compound 26, 6-chloro-2-(6-(4-cyclopropyl-4H-1,2,4-triazol-3-yl)pyridin-2-yl)-5-(morpholine-4-carbonyl)isoindolin-1-one], the IC50 is under 200 nM.
The result for `O=C1c2ccc(-c3cc[nH]n3)cc2CN1c1cccc(-c2nncn2C2CC2)n1` [Compound 28, 2-(6-(4-cyclopropyl-4H-1,2,4-triazol-3-yl)pyridin-2-yl)-5-(1H-pyrazol-3-yl)isoindolin-1-one] reads under 200 nM; that for `Cn1nccc1-c1ccc2c(c1)CN(c1cccc(-c3nncn3C3CC3)n1)C2=O` [Compound 29, 2-(6-(4-cyclopropyl-4H-1,2,4-triazol-3-yl)pyridin-2-yl)-5-(1-methyl-1H-pyrazol-5-yl)isoindolin-1-one], under 200 nM.
In the case of `Cn1cnc(-c2ccc3c(c2)CN(c2cccc(-c4nncn4C4CC4)n2)C3=O)c1` [Compound 30, 2-(6-(4-cyclopropyl-4H-1,2,4-triazol-3-yl)pyridin-2-yl)-5-(1-methyl-1H-imidazol-4-yl)isoindolin-1-one], the half-inhibitory concentration (IC50) was under 200 nM.
In turn, `Nc1ccc2c(c1)CN(c1cccc(-c3nncn3C3CC3)n1)C2=O` [Compound 31, 5-amino-2-(6-(4-cyclopropyl-4H-1,2,4-triazol-3-yl)pyridin-2-yl)isoindolin-1-one] showed an IC50 of under 200 nM.
In turn, `O=C1c2ccc(NC(=O)C3(c4ccccc4)CC3)cc2CN1c1cccc(-c2nncn2C2CC2)n1` [Compound 33, N-(2-(6-(4-Cyclopropyl-4H-1,2,4-triazol-3-yl)pyridin-2-yl)-1-oxoisoindolin-5-yl)-1-phenylcyclopropane-1-carboxamide] yielded an IC50 of 200 to 1000 nM.
The molecule `CCNc1ccc2c(c1)CN(c1cccc(-c3nncn3C3CC3)n1)C2=O` [Compound 35, 2-(6-(4-cyclopropyl-4H-1,2,4-triazol-3-yl)pyridin-2-yl)-5-(ethylamino)isoindolin-1-one] showed an IC50 of under 200 nM.
The molecule `Cn1cncc1-c1ccc2c(c1)C(=O)N(c1cccc(-c3nncn3C3CC3)n1)C2` [Compound 36, 2-(6-(4-cyclopropyl-4H-1,2,4-triazol-3-yl)pyridin-2-yl)-6-(1-methyl-1H-imidazol-5-yl)isoindolin-1-one] yielded an IC50 of under 200 nM.
Regarding `O=C1c2cc(-n3ccnc3)ccc2CN1c1cccc(-c2nncn2C2CC2)n1` [Compound 37, 2-(6-(4-cyclopropyl-4H-1,2,4-triazol-3-yl)pyridin-2-yl)-6-(1H-imidazol-1-yl)isoindolin-1-one], the IC50 is under 200 nM.
Molecule `O=C1c2cc(-n3cnc4ccccc43)ccc2CN1c1cccc(-c2nncn2C2CC2)n1` [Compound 38, 6-(1H-Benzo[d]imidazol-1-yl)-2-(6-(4-cyclopropyl-4H-1,2,4-triazol-3-yl)pyridin-2-yl)isoindolin-1-one] returned an IC50 of under 200 nM.
`Cn1ccc(-c2ccc3c(c2)C(=O)N(c2cccc(-c4nncn4C4CC4)n2)C3)n1` [Compound 39, 2-(6-(4-cyclopropyl-4H-1,2,4-triazol-3-yl)pyridin-2-yl)-6-(1-methyl-1H-pyrazol-3-yl)isoindolin-1-one] yielded an IC50 of under 200 nM.
As for `Cc1ccc(-c2ccc3c(c2)C(=O)N(c2cccc(-c4nncn4C4CC4)n2)C3)cn1` [Compound 42, 2-(6-(4-cyclopropyl-4H-1,2,4-triazol-3-yl)pyridin-2-yl)-6-(6-methylpyridin-3-yl)isoindolin-1-one], the figure is under 200 nM; as for `COc1ccc(-c2ccc3c(c2)C(=O)N(c2cccc(-c4nncn4C4CC4)n2)C3)cn1` [Compound 45, 2-(6-(4-cyclopropyl-4H-1,2,4-triazol-3-yl)pyridin-2-yl)-6-(6-methoxypyridin-3-yl)isoindolin-1-one], under 200 nM; as for `O=C1c2cc(-c3cnn(C4CC4)c3)ccc2CN1c1cccc(-c2nncn2C2CC2)n1` [Compound 47, 6-(1-cyclopropyl-1H-pyrazol-4-yl)-2-(6-(4-cyclopropyl-4H-1,2,4-triazol-3-yl)pyridin-2-yl)isoindolin-1-one], under 200 nM.
The molecule `O=C1c2cc(-c3cnccc3F)ccc2CN1c1cccc(-c2nncn2C2CC2)n1` [Compound 48, 2-(6-(4-cyclopropyl-4H-1,2,4-triazol-3-yl)pyridin-2-yl)-6-(4-fluoropyridin-3-yl)isoindolin-1-one] yielded an IC50 of under 200 nM.
The molecule `O=C1c2cc(-c3cnccc3Cl)ccc2CN1c1cccc(-c2nncn2C2CC2)n1` [Compound 49, 6-(4-chloropyridin-3-yl)-2-(6-(4-cyclopropyl-4H-1,2,4-triazol-3-yl)pyridin-2-yl)isoindolin-1-one] came in with a half-maximal inhibitory concentration (IC50) of under 200 nM.
With `O=C1c2cc(-c3ccncc3)ccc2CN1c1cccc(-c2nncn2C2CC2)n1` [Compound 50, 2-(6-(4-cyclopropyl-4H-1,2,4-triazol-3-yl)pyridin-2-yl)-6-(pyridin-4-yl)isoindolin-1-one], the IC50 was under 200 nM.
In turn, `Cc1ncc(-c2ccc3c(c2)C(=O)N(c2cccc(-c4nncn4C4CC4)n2)C3)s1` [Compound 51, 2-(6-(4-cyclopropyl-4H-1,2,4-triazol-3-yl)pyridin-2-yl)-6-(2-methylthiazol-5-yl)isoindolin-1-one] displayed an IC50 of under 200 nM.
With `Cc1ncccc1-c1ccc2c(c1)C(=O)N(c1cccc(-c3nncn3C3CC3)n1)C2` [Compound 52, 2-(6-(4-cyclopropyl-4H-1,2,4-triazol-3-yl)pyridin-2-yl)-6-(2-methylpyridin-3-yl)isoindolin-1-one], the IC50 is under 200 nM.
Regarding `O=C1c2cc(-c3cccnc3F)ccc2CN1c1cccc(-c2nncn2C2CC2)n1` [Compound 53, 2-(6-(4-cyclopropyl-4H-1,2,4-triazol-3-yl)pyridin-2-yl)-6-(2-fluoropyridin-3-yl)isoindolin-1-one], the IC50 was under 200 nM.

As usually defined, the IC50 is the concentration that inhibits the measured activity by half. Low values mean greater potency in that assay, high ones weaker potency in that assay.

Values taken from patent publication US10150755B2, “ASK1 inhibitor compounds and uses thereof” (Seal Rock Therapeutics, Inc., priority 2017, dated 2018).
